The test system of series [1] is HCC1806. The experiment in a line: Cytotoxicity against human HCC1806 cells assessed as reduction in cell viability measured after 96 hrs by MTT assay. The conditions noted are these: HCC1806, 96 h. Type of series: functional, cell-based. Background: Tetrazolium assays rely on reduction of a dye to a coloured formazan, in cell work by metabolically active cells.
The nature of series [2]: Suppression of MyD88 expression in human MDA-MB-231 cells expressing TLR4 at 10 uM pretreated with compounds for 24 hrs followed by PTX challenge and measured after 24 hrs by ELISA relative to control. The conditions noted are these: time 48 hrs. Type of series: functional. For orientation: An ELISA detects its analyte on a solid surface through an enzyme-linked reagent.

Series [3] relates to MDA-MB-231. The experiment in a line: Cytotoxicity against human MDA-MB-231 cells expressing TLR4 assessed as reduction in cell viability measured after 96 hrs by MTT assay. Type of series: functional, cell-based. The conditions noted are these: MDA-MB-231, 96 h.
Series [4] in a line: Suppression of MyD88 expression in human MDA-MB-231 cells expressing TLR4 at 0.1 uM pretreated with compounds for 24 hrs followed by PTX challenge and measured after 24 hrs by ELISA relative to control. The class given is functional. The conditions noted are these: time 48 hrs.
The subject of series [5] is MCF7. The experiment in a line: Cytotoxicity against human MCF7 cells expressing TLR4 assessed as reduction in cell viability measured after 96 hrs by MTT assay. The conditions noted are these: MCF7, 96 h. The class given is functional, cell-based.
Series [6] has as its system HCC1806. The experiment in a line: Cytotoxicity against human HCC1806 cells assessed cell growth inhibition at 10 uM measured after 96 hrs by MTT assay relative to control. The conditions noted are these: read-out: GI. Type of series: functional.
A short description of series [7]: Suppression of MyD88 expression in human MDA-MB-231 cells expressing TLR4 at 1 uM pretreated with compounds for 24 hrs followed by PTX challenge and measured after 24 hrs by ELISA relative to control. Type of series: functional. The conditions noted are these: time 48 hrs.
The nature of series [8]: Effect on MyD88 expression in human MDA-MB-231 cells expressing TLR4 at 0.1 to 10 uM after 24 hrs by ELISA. Type of series: cell-based. The conditions noted are these: mda-mb-231, 24 h, dose 0.1-10 µM.
The test system of series [9] is MCF7. The experiment in a line: Cytotoxicity against human MCF7 cells expressing TLR4 assessed cell growth inhibition at 10 uM measured after 96 hrs by MTT assay relative to control. Type of series: functional. The conditions noted are these: read-out: GI.
Series [10] concerns BEAS-2B. The experiment in a line: Cytotoxicity against human BEAS-2B cells reduction in cell viability measured after 96 hrs by MTT assay. Type of series: cell-based.
Series [11] concerns MDA-MB-231. The experiment in a line: Cytotoxicity against human MDA-MB-231 cells expressing TLR4 assessed cell growth inhibition at 10 uM measured after 96 hrs by MTT assay relative to control. The class given is functional. The conditions noted are these: read-out: GI.
In series [12] the test system is MDA-MB-231. The experiment in a line: Cytotoxicity against human MDA-MB-231 cells expressing TLR4 assessed as cell viability at 10 uM measured after 96 hrs by MTT assay relative to control. Type of series: functional. The conditions noted are these: read-out: Activity.
The subject of series [13] is HCC1806. The experiment in a line: Cytotoxicity against human HCC1806 cells assessed as cell viability at 10 uM measured after 96 hrs by MTT assay relative to control. Type of series: functional. The conditions noted are these: read-out: Activity.
The subject of series [14] is MCF7. The experiment in a line: Cytotoxicity against human MCF7 cells expressing TLR4 assessed as cell viability at 10 uM measured after 96 hrs by MTT assay relative to control. Type of series: functional. The conditions noted are these: read-out: Activity.
Series [15] has as its system MDA-MB-231. The experiment in a line: Cytotoxicity against human MDA-MB-231 cells expressing TLR4 assessed as growth inhibition measured after 96 hrs by MTT assay. The class given is functional, cell-based. The conditions noted are these: MDA-MB-231, 96 h.
Series [16] can be described thus: Selectivity index, ratio of IC50 for human BEAS-2B cells to IC50 for human MCF7 cells. The conditions noted are these: BEAS-2B cells versus MCF7 cells, read-out: Selectivity Index. The class given is toxicity.
Series [17] in a line: Selectivity index, ratio of IC50 for human BEAS-2B cells to IC50 for human MDA-MB-231 cells. The conditions noted are these: BEAS-2B cells versus MDA-MB-231 cells, read-out: Selectivity Index. The class given is toxicity.
Series [18] concerns HCC1806. The experiment in a line: Cytotoxicity against human HCC1806 cells assessed as growth inhibition measured after 96 hrs by MTT assay. The class given is cell-based. The conditions noted are these: HCC1806, 96 h.

Usually IC50 stands for the concentration that inhibits the measured activity by half. Regarding `O=C(C1=C(O)/C(=C/c2ccc(C(F)(F)F)cc2)CCC1)c1ccccc1`, the 50% inhibitory concentration (IC50) is 5330 nM in [1], 6500 nM in series [3], 2300 nM in series [5] and 3800 nM in [10]. Further, the Activity was 27.94% in series [2], 17.64% in series [4], 24.77% in series [7] and 23% in series [8]. The inhibition of growth at 10 µM in series [6], in [9] and in series [11] was 8% each time.

Take `COc1cc(C)ccc1/C=C1\CCCC(C(=O)c2ccccc2)=C1O`: the viability at 10 µM in series [12], in series [13] and in series [14] was 87% throughout.

Turning to `CC(=O)O[C@H]1C(=O)[C@@]2(C)[C@H]([C@H](OC(=O)c3ccccc3)[C@]3(O)C[C@H](OC(=O)[C@H](O)[C@@H](NC(=O)c4ccccc4)c4ccccc4)C(C)=C1C3(C)C)[C@]1(OC(C)=O)CO[C@@H]1C[C@@H]2O` [PACLITAXEL], the IC50 in [1] turned out to be 9 nM; in [3] it was 40 nM; in series [5], 30 nM; in series [15] it was 27 nM; in [18] it was 8 nM; in series [10] it was 8 nM. Moreover, the selectivity ratio worked out at 0.26 in series [16] and 0.2 in series [17].

These data come from ChEMBL document CHEMBL5055651, “Synthesis of small molecules targeting paclitaxel-induced MyD88 expression in triple-negative breast cancer cell lines” (Bioorg Med Chem, 2021).
